Source: patent publication US8680065B2, “Oligonucleotides of human endogenous retrovirus 9 (ERV-9) long terminal repeat (LTR) and methods of use” (The United States of America, as represented by the …, priority 2008, dated 2014)

Tests used:
[1] = system: MCF-7 cells; test: Tumor cell proliferation, siRNA in LIPOFECTAMINE, 72 hours; type: cell-based, human; settings: siRNA 100 nM
Experimental: (§1) FIG. 20 is a pair of graphs showing the effect of ERV-9 LTR U3 region siRNA (SEQ ID NOs: 13 and 14), alone or in combination with VP16, on proliferation of MDA-231 (top) and MCF-7 (bottom) cells. 4×10^4 cells were treated with siRNAs formulated in LIPOFECTAMINE™ at 100 nM for 72 hours. RRM2 is a combination of three siRNAs (SEQ ID NOs: 15, 16, and 17) against ribonucleotide reductase subunit M2. Relative cell proliferation levels were expressed as percentage of non-treated control.
(§2) 4×10^4 cells were treated with siRNAs formulated in LIPOFECTAMINE™ at 100 nM for 72 hours. […] For RRM2, a combination of the 3 siRNAs was used at final concentration of 100 nM. Relative cell proliferation levels were expressed as percentage of non-treated control. Student's t-test was used for statistics.

[2] = system: MDA-231 cells; test: as above; type: cell-based, human; settings: siRNA 100 nM
Experimental: as §1, §2

[3] = system: HT1080 cells; test: Cancer cell proliferation, U3 and U5 oligonucleotides, 72 hours; type: cell-based, human; settings: 20 μg/ml
Experimental: FIG. 16 is a graph showing the effect of sense and antisense ERV-9 U3 (SEQ ID NOs: 1, 2, 7, 8, 9, and 10) and U5 (SEQ ID NOs: 11 and 12) oligonucleotides on proliferation of HT1080 cells. Cells (4×10^4) were treated with oligonucleotide formulated in LIPOFECTAMINE™ at a concentration of 20 μg/ml for 72 hours. GFP sense oligonucleotide was used as a control to measure the non-specific cytotoxicity of phosphorothioate-based oligonucleotides. Antisense oligonucleotides G3139, GRN163, and MDM2 were also evaluated. Cell proliferation levels were expressed relative to cells transfected with GFP oligonucleotide. All U3 and U5 sense and antisense oligonucleotides inhibited cell proliferation to a greater extent that GFP control. In addition, with the exception of the U5 sense oligonucleotide, all U3 and U5 oligonucleotides inhibited cell proliferation better than the G3139, GRN163 and MDM2 antisense oligonucleotides.
(§3) HT1080 or MDA-231 cells (4×10^4 cells) were treated with ERV-9 LTR (U3 or U5) sense or antisense oligonucleotides formulated in LIPOFECTAMINE™ at a concentration of 20 μg/ml for 72 hours. GFP sense oligonucleotide was used as a control to measure the non-specific cytotoxicity of phosphorothioates-based oligonucleotides. Relative cell proliferation levels were expressed as percentage of GFP oligonucleotide transfected control. The results are shown in FIG. 16 (HT1080 cells) and FIG. 17 (MDA-231 cells).

[4] = system: MDA-231 cells (a breast cancer cell line); test: Cancer cell proliferation, oligonucleotide in LIPOFECTAMINE, 48 hours, direct cell counting; type: cell-based, human; settings: oligonucleotide 10, 20 or 30 μg/ml, P<0.05
[5] = system: LNcaP cells (a prostate cancer cell line); test: as above; type: cell-based, human; settings: oligonucleotide 10, 20 or 30 μg/ml
[6] = system: MDA-231 cells; test: Cancer cell proliferation, oligonucleotide in combination with VP16, 48 hours; type: cell-based, human; settings: oligonucleotide 15 μg/ml with VP16 30 ng/ml and 50 ng/ml, P<0.05
[7] = system: LNcaP cells; test: as above; type: cell-based, human; settings: oligonucleotide 15 μg/ml with VP16 30 ng/ml and 50 ng/ml
Experimental: FIG. 10 is a graph showing proliferation of LNcaP cells treated with ERV-9 U3 sense or antisense oligonucleotide (SEQ ID NOs: 1 and 2, respectively), in combination with VP16. Cells (4×10^4) were treated with oligonucleotide (15 μg/ml) alone or in combination with the concentrations of VP16 shown for 48 hours.
To test the effect of treating cancer cells with the combination of ERV-9 U3 oligonucleotide and VP16, six different cancer cell lines were analyzed: HT1080, (FIG. 7); MDA-231 (FIG. 8); K562 (FIG. 9); LNcaP (FIG. 10); HepG2 (FIG. 11); and MCF-7 (FIG. 12). Cells (4×10^4) were treated with 15 μg/ml ERV-9 U3 sense (SEQ ID NO: 1) or antisense (SEQ ID NO: 2) oligonucleotide alone or in combination with VP16 at a concentration of 30 ng/ml or 50 ng/ml. After 48 hours, cell proliferation was assessed by direct cell counting. Cell proliferation levels were expressed relative to GFP oligonucleotide control in the absence of VP16.

[8] = system: MDA-231 cells; test: Cancer cell proliferation, U3 and U5 oligonucleotides, 72 hours; type: cell-based, human; settings: 20 μg/ml
Experimental: FIG. 17 is a graph showing the effect of sense and antisense ERV-9 U3 and (SEQ ID NOs: 1, 2, 7, 8, 9, and 10) and U5 (SEQ ID NOs: 11 and 12) oligonucleotides on proliferation of MDA-231 cells. Cells (4×10^4) were treated with oligonucleotide formulated in LIPOFECTAMINE™ at a concentration of 20 μg/ml for 72 hours. GFP sense oligonucleotide and G3139, GRN163 and MDM2 antisense oligonucleotides were included as controls. Cell proliferation levels were expressed relative to cells transfected with GFP oligonucleotide. All U3 and U5 sense and antisense oligonucleotides inhibited cell proliferation better than GFP control and the G3139, GRN163 and MDM2 antisense oligonucleotides.
as §3

[9] = system: tumor; settings: U.S. Pat. Nos. 7,256,284 and 6,946,447; Ozawa et al. 2004; cited from earlier work

## ERV-9 LTR U3 siRNA: siRNA duplex of the ERV9 LTR U3 region: CUCAAGGUUUGUAAACACACCAAUCAG and CUGAUUGGUGUGUUUACAAACCUUGAG (listed as RNA, chemistry not given here)
[1]
  cell proliferation as percentage of non-treated control: inhibited cell proliferation better than RRM2 siRNAs
[2]
  cell proliferation as percentage of non-treated control: inhibited cell proliferation better than RRM2 siRNAs

## U3AS5: ERV-9 U3 antisense oligonucleotide CCGACCGGTTCCGGTCTCGGCCGAGG, target nt 2792-2817 (AF064190) (listed as DNA, chemistry not given here) [Oligo U3AS5]
[3]
  cell proliferation relative to GFP oligonucleotide transfected control: inhibited cell proliferation better than G3139, GRN163 and MDM2 oligonucleotides

## GRN163: antisense oligonucleotide specific for telomerase, TAGGGTTAGACAA (listed as DNA, further chemistry not given here)
[4]
  cell proliferation relative to GFP oligonucleotide: inhibited cell proliferation only at concentrations of 10 μg/ml and 20 μg/ml
[5]
  cell proliferation relative to GFP oligonucleotide: did not significantly inhibit cell proliferation at any of the three concentration levels
[6]
  cell proliferation relative to GFP oligonucleotide control: inhibited cell proliferation only at a VP16 concentration of 50 ng/ml
[7]
  cell proliferation relative to GFP oligonucleotide control: did not inhibit cell proliferation at any VP16 concentration tested
[8]
  cell proliferation relative to GFP oligonucleotide transfected control: inhibited cell proliferation better than the GFP control oligonucleotide
[9]
  tumor growth in animal models: has been previously shown to inhibit tumor growth in animal models

## U5AS: ERV-9 U5 antisense oligonucleotide GTTCTGATGTTTGGATGTGTTC, target nt 819-840 (AF064191) (listed as DNA, chemistry not given here) [Oligo U5AS]
[3]
  cell proliferation relative to GFP oligonucleotide transfected control: inhibited cell proliferation better than G3139, GRN163 and MDM2 oligonucleotides

## U3S4: ERV-9 U3 sense oligonucleotide CCGAGCCTCGCCGACGAGCGCCGC, target nt 3096-3119 (AF064190) (listed as DNA, chemistry not given here) [Oligo U3S4]
[3]
  cell proliferation relative to GFP oligonucleotide transfected control: inhibited cell proliferation better than G3139, GRN163 and MDM2 oligonucleotides

## U3S5: ERV-9 U3 sense oligonucleotide GGCTGGCCAAGGCCAGAGCCGGCTCC, target nt 2792-2817 (AF064190) (listed as DNA, chemistry not given here) [Oligo U3S5]
[3]
  cell proliferation relative to GFP oligonucleotide transfected control: inhibited cell proliferation better than G3139, GRN163 and MDM2 oligonucleotides

## G3139: antisense oligonucleotide specific for Bcl-2, TCTCCCAGCGTGCGCCAT (listed as DNA, chemistry not given here) [Oligo G3139]
[4]
  cell proliferation relative to GFP oligonucleotide: inhibited cell proliferation only at oligonucleotide concentrations of 20 μg/ml and 30 μg/ml
[5]
  cell proliferation relative to GFP oligonucleotide: did not significantly inhibit cell proliferation at any of the three concentration levels
[6]
  cell proliferation relative to GFP oligonucleotide control: inhibited cell proliferation only at a VP16 concentration of 50 ng/ml
[7]
  cell proliferation relative to GFP oligonucleotide control: did not inhibit cell proliferation at any VP16 concentration tested
[3]
  cell proliferation relative to GFP oligonucleotide transfected control: inhibited cell proliferation better than the GFP oligonucleotide control
[8]
  cell proliferation relative to GFP oligonucleotide transfected control: inhibited cell proliferation better than the GFP control oligonucleotide
[9]
  tumor growth in animal models: has been previously shown to inhibit tumor growth in animal models

## U5S: ERV-9 U5 sense oligonucleotide GAACACATCCAAACATCAGAAC, target nt 819-840 (AF064191) (listed as DNA, chemistry not given here) [Oligo U5S]
[3]
  cell proliferation relative to GFP oligonucleotide transfected control: inhibited cell proliferation better than the GFP oligonucleotide control

## MDM2 antisense oligonucleotide: antisense oligonucleotide specific for MDM2, TGACACCTGTTCTCACTCAC (listed as DNA, chemistry not given here)
[4]
  cell proliferation relative to GFP oligonucleotide: inhibited cell proliferation only at concentrations of 10 μg/ml and 20 μg/ml
[5]
  cell proliferation relative to GFP oligonucleotide: inhibited cell proliferation only at a concentration of 10 μg/ml
[6]
  cell proliferation relative to GFP oligonucleotide control: inhibited cell proliferation only at a VP16 concentration of 50 ng/ml
[7]
  cell proliferation relative to GFP oligonucleotide control: inhibited cell proliferation better than GFP control only at a VP16 concentration of 30 ng/ml
[3]
  cell proliferation relative to GFP oligonucleotide transfected control: inhibited cell proliferation better than the GFP oligonucleotide control
[8]
  cell proliferation relative to GFP oligonucleotide transfected control: inhibited cell proliferation better than the GFP control oligonucleotide
[9]
  tumor growth in animal models: has been previously shown to inhibit tumor growth in animal models

## U3AS4: ERV-9 U3 antisense oligonucleotide GCGGCGCTCGTCGGCGAGGCACGG, target nt 3096-3119 (AF064190) (listed as DNA, chemistry not given here) [Oligo U3AS4]
[3]
  cell proliferation relative to GFP oligonucleotide transfected control: inhibited cell proliferation better than G3139, GRN163 and MDM2 oligonucleotides
